Here are results for four molecules from patent US20070043047A1, “Fungicidal mixtures for controlling rice pathogens” (BASF AKTIENGESELLSCHAFT, priority 2003, published 2007).

For the assay, the system named is Corticium sasakii (syn. Rhizoctonia solani). As to the kind of experiment: Activity against sheath blight on rice caused by Corticium sasakii (protective spray, pot test). The format is in vivo. Particulars: for Efficacy in % of the untreated control: individual active compound, rice, evaluated after 11 days, untreated control 90% infection. The method, then: The active compounds, separately or jointly, were prepared as a stock solution with 0.25% by weight of active compound in acetone or DMSO. 1% by weight of the emulsifier Uniperol® EL (wetting agent having emulsifying and dispersing action based on ethoxylated alkylphenols) was added to this solution, and the solution was diluted with water to the desired concentration.
Use example—Activity against sheath blight on rice caused by Corticium sasakii (syn. Rhizoctonia solani) Pots of rice plants of the cultivar “Tai-Nong 67” were sprayed to runoff point with an aqueous suspension having the concentration of active compound stated below. The next day, oat grains infected with Corticium sasakii were placed into the pots (in each case 5 grains per pot). The plants were then placed in a chamber at 26° C. and maximum atmospheric humidity. After 11 days, the sheath blight on the untreated but infected control plants had developed to such an extent that the infection could be determined visually in %.
Evaluation is carried out by determining the infected plants in percent. These percentages were converted into efficacies.
The efficacy (E) is calculated as follows using Abbot's formula: E=(1−α/β)·100 α corresponds to the fungicidal infection of the treated plants in % and β corresponds to the fungicidal infection of the untreated (control) plants in % An efficacy of 0 means that the infection level of the treated plants corresponds to that of the untreated control plants; an efficacy of 100 means that the treated plants are not infected.
The expected efficacies of the mixtures of active compounds are determined using Colby's formula [R. S. Colby, Weeds 15, 20-22 (1967)] and compared with the observed efficacies.
Colby's formula: E=x+y−x·y/100
E expected efficacy, expressed in % of the untreated control, when using the mixture of the active compounds A and B at the concentrations a and b x efficacy, expressed in % of the untreated control, when using active compound A at the concentration a y efficacy, expressed in % of the untreated control, when using active compound B at the concentration b

For the molecule `CC1CCN(c2c(-c3c(F)cccc3Cl)c(Cl)nc3ncnn23)CC1` (single isomer, unassigned) [B], the “Efficacy in % of the untreated control” value by setting is: (1 ppm in the spray liquor) 0%; (4 ppm in the spray liquor) 72%. In addition, the “Effectiveness against sheath blight, comparison in words” value (summary of the test results) was “activity comparable to that of compound I”.
Consider `CC1CCN(c2c(-c3c(F)cc(F)cc3F)c(Cl)nc3ncnn23)CC1` [I, 5-chloro-7-(4-methylpiperidin-1-yl)-6-(2,4,6-trifluorophenyl)-[1,2,4]tri-azolo[1,5-a]pyrimidine], for which the “Efficacy in % of the untreated control” value is given as 33% (1 ppm in the spray liquor) and 67% (4 ppm in the spray liquor).
On the same counts, the results for `CC(Cc1ccc(C(C)(C)C)cc1)CN1C[C@@H](C)O[C@@H](C)C1` (stereo partly drawn) [II, 4-[3-(4-tert-butylphenyl)-2-methylpropyl]-2,6-dimethylmorpholine] are 0% and 0%.
Consider `CC1CCN(c2c(-c3c(F)cccc3Cl)c(Cl)nc3ncnn23)CC1` (single isomer, unassigned) [A], for which the “Efficacy in % of the untreated control” value by setting is: (1 ppm in the spray liquor) 0%; (4 ppm in the spray liquor) 0%.
